Measured values reported in the NIST ThermoML archive (doi:10.1016/j.jct.2011.06.019).

Experiments:
[1] = molar heat capacity at constant pressure; conditions: Liquid, Flow calorimetry
[2] = molar heat capacity at constant pressure; xn = mol fraction of the nth substance listed; conditions: 313.15 K, Liquid, Flow calorimetry

CCO [ethanol]
molar heat capacity at constant pressure [J/K/mol], [1]
Conditions | 100 kPa | 5000 kPa | 10000 kPa | 15000 kPa | 20000 kPa
273.15 K | 103.5 | 103.1 | 102.1 | 101.7 | 100.7
293.15 K | 111.2 | 110.2 | 109 | 108.1 | 107.4
313.15 K | 119.2 | 118 | 116.8 | 115.5 | 114.9
333.15 K | 130 | 129.1 | 127.7 | 126 | 124.7

CCO [ethanol] + CCCCCCC
[2], x2 = 0
Conditions | molar heat capacity at constant pressure [J/K/mol]
100 kPa | 119.2
5000 kPa | 118
10000 kPa | 116.8
15000 kPa | 115.5
20000 kPa | 114.9

CCO [ethanol] + Cc1ccccc1
[2], x2 = 0
Conditions | molar heat capacity at constant pressure [J/K/mol]
100 kPa | 119.2
5000 kPa | 118
10000 kPa | 116.8
15000 kPa | 115.5
20000 kPa | 114.9

CCCCCCC [heptane]
molar heat capacity at constant pressure [J/K/mol], [1]
Conditions | 100 kPa | 5000 kPa | 10000 kPa | 15000 kPa | 20000 kPa
273.15 K | 216.2 | 213.1 | 210.9 | 208.1 | 207.2
293.15 K | 224.1 | 223 | 218.2 | 216.8 | 214.4
313.15 K | 233.8 | 230.3 | 226.2 | 223.1 | 221.6
333.15 K | 241.9 | 238.7 | 235 | 232 | 229.3

CCCCCCC [heptane] + CCO
molar heat capacity at constant pressure [J/K/mol], [2]
Conditions | x1 = 0.1 | x1 = 0.2001 | x1 = 0.3 | x1 = 0.4001 | x1 = 0.5001 | x1 = 0.6 | x1 = 0.6999 | x1 = 0.7999 | x1 = 0.9 | x1 = 1
100 kPa | 134.2 | 149.4 | 163.6 | 176.8 | 190.9 | 202.9 | 215.3 | 224.9 | 234.8 | 233.8
5000 kPa | 132.5 | 147.1 | 160.8 | 174.2 | 187.6 | 200 | 211.9 | 221.4 | 230.4 | 230.3
10000 kPa | 130.7 | 146.1 | 158.6 | 171.6 | 185 | 196.7 | 209 | 218.7 | 226.9 | 226.2
15000 kPa | 129.5 | 143.6 | 156.7 | 169.4 | 182.5 | 194.8 | 205.9 | 215.9 | 223.8 | 223.1
20000 kPa | 128.4 | 142.4 | 155.3 | 168.3 | 180.9 | 193.1 | 204 | 213.3 | 222.6 | 221.6

Cc1ccccc1 [toluene] + CCO
molar heat capacity at constant pressure [J/K/mol], [2]
Conditions | x1 = 0.1003 | x1 = 0.2007 | x1 = 0.2999 | x1 = 0.4002 | x1 = 0.5 | x1 = 0.6001 | x1 = 0.7 | x1 = 0.8 | x1 = 0.9001 | x1 = 1
100 kPa | 130.1 | 138.3 | 146.1 | 153.2 | 159.1 | 163.7 | 167.7 | 169.5 | 168.5 | 163.5
5000 kPa | 128.7 | 136.6 | 144.2 | 151.3 | 157.1 | 162 | 165.3 | 167.5 | 167.3 | 161.3
10000 kPa | 127.3 | 135.5 | 143.2 | 150 | 155.7 | 160.2 | 164.1 | 166.3 | 165.9 | 159.9
15000 kPa | 126.1 | 134.4 | 141.9 | 148.5 | 154.3 | 158.6 | 162.6 | 164.9 | 165.2 | 158.9
20000 kPa | 125.1 | 133.6 | 140.9 | 147.5 | 153.4 | 158.1 | 161.8 | 164 | 163.6 | 157.8
